Test results as given in publication PMC3448615 (PLoS ONE, 2012).

Target: T1, Ox-R2 (orexin R2 receptor) (Homo sapiens, UniProt O43614)
T1 construct: gene HCRTR2
T1 sequence (O43614 1-444): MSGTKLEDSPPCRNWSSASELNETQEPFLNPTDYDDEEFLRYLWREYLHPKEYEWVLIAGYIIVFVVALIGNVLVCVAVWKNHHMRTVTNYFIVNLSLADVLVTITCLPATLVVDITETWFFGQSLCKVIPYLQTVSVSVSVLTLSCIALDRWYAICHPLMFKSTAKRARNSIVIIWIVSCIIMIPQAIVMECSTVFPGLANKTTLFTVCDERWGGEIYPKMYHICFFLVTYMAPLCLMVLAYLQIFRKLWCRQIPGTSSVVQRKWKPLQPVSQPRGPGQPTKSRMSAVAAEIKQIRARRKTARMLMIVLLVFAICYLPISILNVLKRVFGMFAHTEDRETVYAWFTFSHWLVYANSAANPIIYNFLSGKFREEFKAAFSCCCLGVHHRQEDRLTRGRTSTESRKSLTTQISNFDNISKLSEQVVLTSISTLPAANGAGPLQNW
Experiment: FLUO-3 calcium mobilization in HEK-293 cells, inhibition of […] orexin-B response
Assay type: cell-based

`CNC(=O)[C@@H](c1ccccc1)N1CCc2cc(OC)c(OC)cc2[C@@H]1CCc1ccc(C(F)(F)F)cc1` [almorexant] showed an IC50 of 332 ± 13 nM.
